From publication PMC7221793, “Metabolism and Pharmacokinetics of SP-8356, a Novel (1S)-(−)-Verbenone Derivative, in Rats and Dogs and Its Implications in Humans” (Molecules, 2020)
Where two headings read alike, the source gives them in different places.

Assay: Pharmacokinetic studies in dogs (single i.v. and p.o. dose)
Type: in vivo
Settings: male, Beagle, dog, plasma, iv, 50 mg/kg
Protocol: Separation was performed on a Phenomenex Kinetex C18 column (2.1 mm × 50 mm, 2.6 µm) with 0.1 vol.% formic acid in water (A) and 0.1 vol.% formic acid in acetonitrile (B) as the mobile phase. The samples were analyzed in a linear gradient elution at a flow rate of 0.45 mL/min at 40 °C: starting with 5 vol.% B for 2 min, ramping to 95 vol.% B in 1 min, maintaining for 3 min and then returning to the initial condition. The injection volume was 5 µL. Ion source parameters were optimized as follows: capillary voltage, 3500 V; drying gas, 12 L/min and 345 °C; nebulizer gas, 35 psi; sheath gas, 11 L/min and 400 °C. Mass spectra were acquired in negative multiple reaction monitoring (MRM) mode at m/z (299 > 283) (F, 100 V; CE, 25 eV) and (253 > 143) (F, 100 V; CE, 30 eV) for SP-8356 and HSDH, respectively. The data were analyzed using Agilent MassHunter Quantitative Analysis software (version B.05.00). The retention times of SP-8356 and HSDH were (4.10 and 4.17) min, respectively. The linear calibration range of SP-8356 was (31.25–4000) ng/mL (r^2 > 0.99). The precision and accuracy of the assay were evaluated using quality control samples prepared in triplicate at (30, 300 and 3000) ng/mL as described in previous report. Both the accuracy and precision of this analytical method were within the acceptable ranges. Pharmacokinetic parameters were calculated by noncompartmental analysis using PKSolver.
Animal studies were conducted at KNOTUS Co., Ltd. (IACUC Approval No.: KNOTUS IACUC 18-KE-363; Approval date: 24 October 2018). SP-8356 dissolved in DMSO/ethanol/Solutol HS 15/deionized water (5/3/40/52 vol.%) was dosed i.v. or p.o. at 50 mg/kg (n = 6/dose group) to male Beagle dogs (11 months old; (11.6–12.4) kg; OrientBio Inc., Gyeonggi, Republic of Korea). Blood samples were collected at selected time points for 24 h post-dosing through jugular vein cannula into EDTA-treated tubes containing AA (final concentration: 0.4 w/v%). The blood samples were then centrifuged at 3000 rpm at 4 °C for 20 min. The separated plasma samples were kept frozen at −80 °C, until analysis. Sample and data analysis methods were the same as those described in Section 4.2.

SMILES: COc1cc(/C=C/C2=CC(=O)[C@H]3C[C@@H]2C3(C)C)cc(O)c1O [SP-8356, (1S,5R)-4-((E)-3,4-dihydroxy-5-methoxystryryl)-6,6-dimethylbicylco[3.1.1]hept-3-en-2-one]
- Vd (read-out: Vss): 1.3 ± 0.3 L/kg
- Vd (read-out: Vz): 1.8 ± 0.3 L/kg
- AUC(0-inf): 12400 ng·h/mL
- AUC(0-t): 12400 ng·h/mL
- clearance: 66.7 mL/min/kg
